For test [1], the system named is mature downstream caspases (17-22 kDa) in 293 extracts. Nature of the test: Intrinsic apoptosis assay in 293 extracts with AB06, KMB01 labeling of mature downstream caspases. Type of test: biochemical. Conditions: AB06 added at the same time as cytochrome c/dATP. An excerpt: FIGS. 6 A-E illustrate that full-length active caspase-7 has unique inhibitor specificity and is processed to mature forms by downstream executioner caspases. (A) The caspase-3 specific inhibitor causes accumulation of a catalytically active full-length form of caspase-7. Cytosolic extracts from 293 cells were activated with cytochrome c/dATP for the indicated times followed by labeling with KMB01 (left panel) and western blotting with a caspase-7 specific antibody (right panel) as in FIG. 5A. […] (B) The exact same experiment as (A) except extracts from MCF-7 cells were used in place of 293 extracts. (**) indicates forms of caspase-7 that are likely a result of the alternative transcription start site at methionine-45 (C) Quantification of the relative activity of FL-C7 in uninhibited 293 extracts (from FIG. 5A), AB06 treated 293 extracts (from (A)) and uninhibited MCF-7 extracts (from (B)) (D) Inhibitor specificity of full-length and processed forms of caspase-7. Extracts (293) were activated for 5 min with cytochrome c/dATP and then incubated with NP-capped AOMK inhibitors containing the indicated primary amino acid sequences for 5 minutes before KMB01 was added and allowed to label residual caspase active sites for 30 minutes. Samples were analyzed by SDS-PAGE followed by biotin blotting using strepavidin-HRP (left panel) or western blotting for caspase-7 (right panel). […]

The test system of test [2] is endogenous caspases in 293 cytosolic extracts. The test can be described thus: Direct labeling of endogenous caspases in apoptotic 293 cytosolic extracts. Type of test: binding. The conditions noted are these: 10 min after cytochrome c/dATP; bAB06 and bAB13 at 10 nM to 10 μM. As to the method:
(a.) Hypotonic 293 cytosolic extracts were induced to undergo intrinsic apoptosis by addition of cytochrome c/dATP. KMB01, bAB06 and bAB13 were added 10 minutes after activation and labeling of caspase active sites was carried out for three minutes. Samples were analyzed by SDS-PAGE followed by biotin blotting using streptavidin-HRP. (b) The identity of individual caspases was confirmed via immunoprecipitation using specific anti-sera for caspases-3, 7 and 9 (also see FIG. 5B for immunoprecipitation of caspases-3 and 7 after KMB01 labeling). Extracts (293) were activated with cytochrome c/dATP for 10 minutes, labeled by addition of indicated probes (100 nM final concentration for bAB06 and bAB13 and 10 μM final concentration for KMB01) and labeled caspases precipitated using specific anti-sera as described in the Methods section. […] Labeling of caspases was monitored by SDS-PAGE followed by biotin blotting with streptavidin-HRP. […]
Selective labeling of endogenous caspases in cell extracts and live cells with active site probes was carried out as follows: Hypotonic 293 cytosolic extracts were induced to undergo intrinsic apoptosis by addition of cytochrome c/dATP. […] Samples were analyzed by SDS-PAGE followed by biotin blotting using streptavidin-HRP. […] Labeling of caspases was monitored by SDS-PAGE followed by biotin blotting with streptavidin-HRP. […]

The subject of test [3] is caspase-3, caspase-6, caspase-7, caspase-8, caspase-9. The conditions noted are these: Kato et al., 2005; cited from earlier work.

On to `Cc1cccc(C)c1C(=O)OCC(=O)[C@H](CC(=O)O)NC(=O)[C@@H](NC(=O)[C@H](Cc1ccncc1)NC(=O)[C@H](CC(=O)O)NC(=O)Cc1ccc(O)c([N+](=O)[O-])c1)C(C)C` [AB06, Np-D-3-V-D-DMBA], for which the “KMB01 labeling of mature downstream caspases” value in test [1] was “completely blocked”.

As for “Bio-EVD-AOMK [KMB01, reference compound]”, the “labeling of endogenous caspases in activated 293 extracts” value in test [2] was “labeled a 35 kDa caspase-9 species and the two primary mature forms of caspase3 at 17 and 20 kDa as well the 33 kDa full length N-peptide processed and 20 kDa mature forms of caspase-7”. Moreover, in test [3], the “labeling of caspases by probe” value was “robust labeling of caspase-9 as well as caspase-3, caspase-7 and caspase-8”.

(Values after patent US20100068150A1, “Selective Caspase Inhibitors” (The Board of Trustees of the Leland Stanford Junior …, priority 2006, published 2010).)
